Measured values as given in the NIST ThermoML archive (doi:10.1016/j.fluid.2007.01.029).
± gives the expanded uncertainty stated by the source.

Conditions: Crystal

SMILES	Normal melting temperature [°C]
c1ccc2ccccc2c1 [naphthalene]	79.99 ± 0.6
c1ccccc1 [benzene]	5.44 ± 0.6
C1CC[C@H]2CCCC[C@@H]2C1 [trans-decahydronaphthalene]	-30.44 ± 0.6
C1CC[C@H]2CCCC[C@H]2C1 [cis-decahydronaphthalene]	-45.08 ± 0.6
C1CCCCC1 [cyclohexane]	6.48 ± 0.6
